± gives the expanded uncertainty stated by the source.
Legend:
[1] = 303.15 K, Liquid; for mass density: 101 kPa; for speed of sound: 101.33 kPa, Frequency=2 MHz
[2] = xn = mol fraction of the nth substance listed; conditions: 303.15 K, 101 kPa, Liquid; for speed of sound: Frequency=2 MHz

c1ccccc1 [benzene]
[1]
Conditions	mass density [kg/m3]	speed of sound [m/s]
–	872 ± 9	1257 ± 11

c1ccccc1 [benzene] + CC(CC(C)(C)C)CP(=O)(O)CC(C)CC(C)(C)C
[2], x2 = 0
Conditions	mass density [kg/m3]	speed of sound [m/s]
–	872 ± 9	1257 ± 11

CC(CC(C)(C)C)CP(=O)(O)CC(C)CC(C)(C)C (stereo unspecified) [bis-(2,4,4-trimethylpentyl) phosphinic acid]
[1]
Conditions	mass density [kg/m3]	speed of sound [m/s]
–	924.7 ± 12	1290.4 ± 17

CC(CC(C)(C)C)CP(=O)(O)CC(C)CC(C)(C)C (stereo unspecified) [bis-(2,4,4-trimethylpentyl) phosphinic acid] + Cc1ccccc1
[2]
Conditions	mass density [kg/m3]	speed of sound [m/s]
x1 = 0.0781	875.6 ± 9.1	1266.5 ± 11
x1 = 0.1268	882.5 ± 9.2	1266.9 ± 11
x1 = 0.1843	888 ± 9.3	1267.5 ± 11
x1 = 0.2532	893.8 ± 9.4	1268.2 ± 11
x1 = 0.3371	899.7 ± 9.6	1269.2 ± 12
x1 = 0.4416	900.9 ± 9.8	1274.6 ± 12
x1 = 0.5755	906.4 ± 10	1278 ± 13
x1 = 0.7531	913.1 ± 11	1284 ± 15
x1 = 1	924.7 ± 12	1290.4 ± 17

CC(CC(C)(C)C)CP(=O)(O)CC(C)CC(C)(C)C (stereo unspecified) [bis-(2,4,4-trimethylpentyl) phosphinic acid] + c1ccccc1
[2]
Conditions	mass density [kg/m3]	speed of sound [m/s]
x1 = 0.0666	886.8 ± 9.2	1252.2 ± 11
x1 = 0.109	891.9 ± 9.3	1255.2 ± 11
x1 = 0.1599	895.6 ± 9.4	1258.1 ± 11
x1 = 0.2222	901.1 ± 9.5	1259.1 ± 11
x1 = 0.2999	904.9 ± 9.6	1261.3 ± 12
x1 = 0.3999	908.4 ± 9.8	1263.2 ± 12
x1 = 0.5332	912.3 ± 10	1266.8 ± 13
x1 = 0.7199	915.3 ± 11	1274.3 ± 14
x1 = 1	924.7 ± 12	1290.4 ± 17

Cc1ccccc1 [toluene]
[1]
Conditions	mass density [kg/m3]	speed of sound [m/s]
–	866.7 ± 8.9	1271.9 ± 11

Cc1ccccc1 [toluene] + CC(CC(C)(C)C)CP(=O)(O)CC(C)CC(C)(C)C
[2], x2 = 0
Conditions	mass density [kg/m3]	speed of sound [m/s]
–	866.7 ± 8.9	1271.9 ± 11

Reference: the NIST ThermoML archive (doi:10.1016/j.jct.2004.12.001)
